“And” between values parts separate entries of the source, which are not always exact repeats. Equal values may be shown once.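 Results reflect a 48-hour exposure of cells in 96-well plates to compound at five concentrations. GI50: concentration for 50% inhibition of growth. TGI: concentration producing complete growth inhibition.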
Key:
Experiment in all cases: DTP human tumour cell line panel, 48 h
[1] = tested on: IGROV1 ovarian
[2] = tested on: CAKI-1 renal
[3] = tested on: SF-295 CNS
[4] = tested on: 786-0 renal
[5] = tested on: SN12C renal
[6] = tested on: NCI-H460 lung
[7] = tested on: UACC-62 melanoma
[8] = tested on: NCI-H226 lung
[9] = tested on: OVCAR-4 ovarian
[10] = tested on: OVCAR-3 ovarian

Row | SMILES | GI50 [1] | TGI [1] [µM] | GI50 [2] | TGI [2] | GI50 [3] | TGI [3] [µM] | GI50 [4] | TGI [4] | GI50 [5] [µM] | TGI [5] [µM] | GI50 [6] | TGI [6] [µM] | GI50 [7] | TGI [7] [µM] | GI50 [8] | TGI [8] | GI50 [9] [µM] | TGI [9] [µM] | GI50 [10] [µM] | TGI [10] [µM]
1 | Cc1cc(C)c(NC(=O)c2sc3nc4c(cc3c2N)C(=O)CCC4)c(C)c1 | 5.58 µM | > 100 | 2.66 µM | > 100 µM | 0.755 µM | > 100 | 6.85 µM | > 100 µM | 7.42 | > 100 | 1.56 µM | 21.2 | 1.31 µM | > 100 | 5.81 µM | > 100 µM | 6.89 | > 100 | 2.46 | 8.62
2 | O=C(O)CNS(=O)(=O)c1ccc(NC(=O)c2ccc([N+](=O)[O-])cc2)cc1 |  | > 100 |  | > 100 µM |  | > 100 |  | > 100 µM |  | > 100 |  | > 100 |  | > 100 |  | > 100 µM |  | > 100 |  | > 100
3 | O=C(Nc1n[nH]c2cc(-c3ccccc3)ccc12)C1CC1 | 19.6 µM | > 25 | 9.36 µM | > 25 µM | 9.07 µM | > 25 | > 25 µM | > 25 µM | 16.3 | > 25 | 7.15 µM | > 25 | > 25 µM | > 25 | > 25 µM | > 25 µM | > 25 | > 25 | 5.34 | 16.9
4 | O=C1c2cccnc2-c2nc(-c3ccc(Cl)cc3)cc3c2c1nc1ccccc13 | 32.3 µM | > 100 | 67.7 µM | > 100 µM | 22.9 µM | > 100 | 12.8 µM | 29.7 µM | 24 | > 100 | 37.2 µM | > 100 | 76 µM | > 100 | 49.5 µM | > 100 µM | 43.6 | > 100 | 24 | 75
5 | c1ccc(Sc2ccc(Cc3nc4cc5ccccc5cc4[nH]3)cc2)cc1 | 27.1 µM | > 100 | 11.7 µM | 48.8 µM | 2.65 µM | 34.7 | 4.77 µM | > 63.8 µM | 16.8 | 76.5 | 0.21 µM | > 100 | 4.17 µM | 27.2 | 2.48 µM | 26.9 µM | 57.5 | > 100 | 8.34 | 39.8
6 | CC1=CC(C)(C)N=C2SC(c3ccc(N)cc3)=NN12 |  | > 100 |  | > 100 µM |  | > 100 |  | > 100 µM |  | > 100 |  | > 100 |  | > 100 |  | > 100 µM |  | > 100 |  | > 100
7 | CCCCNC1CCCCC[C@H]1O (some centres not stated) |  | > 100 |  | > 100 µM |  | > 100 |  | > 100 µM |  | > 100 |  | > 100 |  | > 100 |  | > 100 µM |  | > 100 |  | > 100
8 | CN1CCc2nc(N)nc(-c3nc(N)nc4c3CN(C)CC4)c2C1 |  | > 100 |  | > 100 µM |  | > 100 |  | > 100 µM |  | > 100 |  | > 100 |  | > 100 |  | > 100 µM |  | > 100 |  | > 100
9 | Cc1cc(C(=O)Nc2ccc3cc(CN4CCOCC4)ccc3n2)c(C)n1-c1ccccc1 | 3.92 µM | 44.8 | 1.5 µM | 16.7 µM | 1.99 µM | 12.5 | 4.75 µM | 17.9 µM | 5.75 | > 92.3 | 2.51 µM | > 52.1 | 1.38 µM | 3.88 | 0.374 µM | 5.92 µM | 1.24 | > 23.8 | 1.58 | 6.72
10 | CCOC(=O)/C(C)=C(/O)C(=O)OCC |  | > 100 |  | > 100 µM |  | > 100 |  | > 100 µM |  | > 100 |  | > 100 |  | > 100 |  | > 100 µM |  | > 100 |  | > 100
11 | O=C(CCc1nc(=S)[nH][nH]1)Nc1ccccc1Cl |  | > 100 |  | > 100 µM |  | > 100 |  | > 100 µM |  | > 100 |  | > 100 |  | > 100 |  | > 100 µM |  | > 100 |  | > 100
12 | CCCN(CCC)C(=O)c1c([N+](=O)[O-])cc(C(F)(F)F)cc1[N+](=O)[O-] |  | > 100 |  | > 100 µM |  | > 100 |  | > 100 µM |  | > 100 |  | > 100 |  | 50.1 |  | 65.3 µM |  | 32.9 |  | 34.8
13 | COc1cc2ncnc(-n3ncc4cc(NC(=O)Nc5ccccc5)ccc43)c2cc1OC | 0.427 µM | 4.62 | 2.08 µM | 12.1 µM | 0.73 µM | 5.87 | 1.3 µM | 4.34 µM | 1.14 | 5.78 | 0.706 µM | 16.4 | 1.23 µM | 6.27 | 1.07 µM | 4.06 µM | 1.01 | 4.26 | 2.08 | 13.1
14 | CC(C)c1c(O)c(O)c2c(c1O)C(=O)C(O)=C1C(C)(C)CCC[C@@]12C |  | 13.9 |  | 6.34 µM |  | 12 |  | 13.8 µM |  | 18.7 |  | 10.1 |  | 16.1 |  | 7.88 µM |  | 16.7 |  | 16.2
15 | Cc1ccc(NC(=O)c2cccc(C(C)(C)C#N)c2)cc1Nc1ccc2ncn(C)c(=O)c2c1 | 1.49 µM | > 100 | 2.96 µM | > 100 µM | 6.99 µM | > 100 | 11.6 µM | > 100 µM | 4.94 | > 100 | 2.76 µM | > 100 | 0.0275 µM |  | 5.62 µM | > 100 µM | 3.9 | > 100 | 13.4 | > 100
16 | CC1=[N+]([O-])c2ccccc2C(=O)C1=O |  | > 100 |  | > 100 µM |  | > 100 |  | > 100 µM |  | > 100 |  | > 100 |  | > 100 |  | > 100 µM |  | > 100 |  | > 100
17 | CC(C)c1ccc(-c2cc(-c3cn[nH]c3-c3ccccn3)ccn2)cc1 | > 23.3 µM | > 25 | 19.1 µM | > 25 µM | 7.68 µM | > 19.7 | > 18.8 µM | > 25 µM | 15.9 | > 25 | 7.64 µM | > 25 | 17.2 µM | > 25 | 12.1 µM | > 25 µM | 10.4 | > 25 | 8.4 | > 25
18 | CC/C=C\C[C@H](O)C/C=C1/C(=O)C=C[C@@H]1C/C=C\CCCC(=O)OC | 3.05 µM | 8.71 | 3.11 µM | 12.7 µM | 2.26 µM | 5.58 | 1.86 µM | 3.62 µM | 2.55 | 10.2 | 3.26 µM | 11.2 | 1.05 µM | 3.49 | 2.17 µM | 4.63 µM | 3.48 | 16.2 | 0.692 | 2.13
19 | CN1CCN(CCCNc2nc3ccc(Oc4ccc(NC(=O)Nc5cc(C(F)(F)F)ccc5F)cc4)cc3[nH]2)CC1 | 9.62 µM | > 23.9 | > 25 µM | > 25 µM | 3.67 µM | 7.98 | 5.26 µM | 11.9 µM | 4.77 | 11.2 | 4.37 µM | 8.4 | 4.1 µM | 7.66 | 5.55 µM | 16.8 µM | 5.88 | > 19.5 | 4.49 | 9.65
20 | CCCCCCCCCCCCCCCC(=O)OCC(C[As](=O)(O)O)OC(=O)CCCCCCCCCCCCCCC (configuration not stated) |  | > 100 |  | > 100 µM |  | > 100 |  | > 100 µM |  | > 100 |  | > 100 |  | > 100 |  | > 100 µM |  | > 100 |  | > 100
21 | O=C1C2C3C=C4c5ccccc5N(c5ccccc5)C4(C2C(=O)N1c1ccc([N+](=O)[O-])cc1)[C@H]1C(=O)N(c2ccc([N+](=O)[O-])cc2)C(=O)[C@@H]31 (some centres not stated) |  | > 100 |  | > 100 µM |  | > 100 |  | > 100 µM |  | > 100 |  | > 100 |  | > 100 |  | > 100 µM |  | > 100 |  | > 100
22 | O=C1/C(=C(/c2ccccc2)N2CCOCC2)Cc2ccccc21 | 1.46 µM | 3.61 | 0.186 µM | 2.08 µM | 12.2 µM | 28 | 1.98 µM | 3.81 µM | 2.16 | 6.33 | 4.52 µM | 18.6 | 1.79 µM | 4.24 | 3.39 µM | 8.99 µM | 1.52 | 3 | 0.479 | 1.5
23 | COc1cc2c3c(n(CCCN)c(=O)c2cc1OC)-c1ccc(C#N)cc1C3=O | 8.79 µM | > 100 | 34.9 µM | > 100 µM | 11.1 µM | 33.6 | 4.43 µM | 20.3 µM | 16.8 | 32.8 | 7.16 µM | 26.9 | 17 µM | 32.2 | 17.3 µM | 38 µM | 20 | 41.3 | 19.1 | 39.9
24 | N#Cc1cc(-c2cc3ccccc3o2)oc1N | 1.76 µM | 6.35 | 1.65 µM | 5.48 µM | 2.22 µM | 4.97 | 4.74 µM | 22.5 µM | 3 | 11.8 | 3.03 µM | 10.6 | 3.79 µM | 17.2 | 3.12 µM | 13.4 µM | 3.23 | 40.6 | 1.98 | 6.38
25 | COC(=O)Nc1nc2ccc(C3(c4ccc(F)cc4)OCCO3)cc2[nH]1 | 1.29 µM | > 100 | 0.462 µM | > 100 µM | 0.272 µM | > 100 | 0.687 µM | > 100 µM | 0.584 | > 100 | 0.344 µM | > 36.8 | 0.619 µM | > 100 | 2.15 µM | > 94 µM | 7.16 | > 100 | 0.301 | 
26 | CCOC(=O)C1SC(=Nc2ccc(C)c(C)c2)N=C1C (configuration not stated) |  | > 100 |  | > 100 µM |  | > 100 |  | > 100 µM |  | > 100 |  | > 100 |  | > 100 |  | > 100 µM |  | > 100 |  | > 100
27 | CC1=CC(=O)C=CC1=O | 18.1 µM and 18.2 µM | 43 | 15.1 µM and 15.3 µM | 28.4 µM and 29.8 µM | 50.3 µM and 22.7 µM | 64.3 | 19.3 µM and 19.1 µM | 33.8 µM and 34.2 µM | 28.7 |  | 32.8 µM and 22.3 µM | 53.4 | 28.2 µM and 13.7 µM | 27.2 | 20.4 µM and 33.1 µM | 48.6 µM and 240 µM | 15.1 | 30.4 | 3.96 | 13.3
28 | C=C(C)[C@@H]1CC[C@]2(CO)CC[C@]3(C)[C@H](CC[C@@H]4[C@@]5(C)C=C(C#N)C(=O)C(C)(C)[C@@H]5CC[C@]43C)[C@@H]12 | 0.684 µM | 4.65 | 2.82 µM | 14.4 µM | 1.73 µM | 3.96 | 1.92 µM | 3.98 µM | 1.17 | 4.27 | 1.37 µM | 5.17 | 0.72 µM | 2.44 | 2.39 µM | 5.49 µM | 0.769 | 5.11 | 1.27 | 2.73
29 | CCOC(=O)C(=O)Nc1ccccc1CC |  | > 100 |  | > 100 µM |  | > 100 |  | > 100 µM |  | > 100 |  | > 100 |  | > 100 |  | > 100 µM |  | > 100 |  | > 100
30 | CCc1nc(N)nc(N)c1-c1ccc(NC)c([N+](=O)[O-])c1 |  | > 100 |  | > 79 µM |  | > 94.7 |  | > 100 µM |  | > 100 |  | > 100 |  | > 100 |  | > 100 µM |  | > 100 |  | > 100

Reference: PubChem BioAssay (NCI)
